Data on ten molecules can be found in publication PMC9358932 (Chemical Science, 2022).

The test system of one data set is Cp149 dimer. The experiment in a line: Solution-state NMR chemical shift perturbations. In kind it is binding, Hepatitis B virus (HBV). Conditions: 4 molar equivalents of compound.
In data set [1] the target is T1, Cp149 reassembled capsids (Hepatitis B virus genotype D subtype ayw, UniProt P03146). The experiment in a line: biochemical. As to conditions: ITC, 50 mM HEPES pH 7.5, 298 K. Type of data set: binding, Hepatitis B virus (HBV).
Another data set deals with many organisms. Conditions: cited from earlier work.
The target in data set [2] is T1, Cp149 reassembled capsids. As to conditions: ITC, TX100 value taken from previous data; cited from earlier work. On the technique in general: In ITC the heat of successive injections is recorded.

Like-named read-outs stand apart in the source and are kept apart here.

T1 sequence (P03146 1-149): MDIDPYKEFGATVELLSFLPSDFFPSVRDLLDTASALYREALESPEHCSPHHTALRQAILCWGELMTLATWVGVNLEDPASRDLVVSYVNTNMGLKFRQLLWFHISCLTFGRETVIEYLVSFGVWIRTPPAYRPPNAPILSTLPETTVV

4-hexylaniline [Compound 2e]: the “CSPs / pocket binding in words” value with Cp149 dimer is listed as “smallest CSPs”.

Regarding 4’-heptylacetophenone [Compound 2d], the “CSPs / pocket binding in words” value in the data set with Cp149 dimer is listed as “rather small CSPs”.

For the molecule `CC(C)(C)CC(C)(C)c1ccc(O)cc1` [Compound 1c, 4-tert-octylphenol], in data set [1], the ΔH is -4.79 ± 0.14 kcal/mol and binding was characterised by a dissociation constant (Kd) of 7.5 ± 0.5 µM. Also, the “CSPs / pocket binding in words” value in the data set with Cp149 dimer is on record as “as high as those derived for TX100”. Moreover, in the data set on many organisms, the “toxicity / environmental pollutant” value is “toxic to many organisms”.

In data set [1], `CCCCCCc1ccc(O)cc1` [Compound 2a, 4-hexylphenol] came in with a ΔH of -6.0 ± 0.6 kcal/mol and a Kd of 13 ± 3 µM.

In data set [1], `CC(C)c1ccc(O)cc1` [Compound 4a, 4-isopropylphenol] yielded a ΔH of -5 ± 3 kcal/mol and a Kd of 18 ± 7 µM.

For `CCCc1ccc(O)cc1` [Compound 4b, 4-propylphenol], in data set [1], the ΔH was -7 ± 4 kcal/mol and binding was characterised by a dissociation constant (Kd) of 14 ± 7 µM.

In data set [1], `CCC(C)(C)c1ccc(O)cc1` [Compound 4c, 4-tert-amylphenol] showed a ΔH of -12.7 ± 1.2 kcal/mol and a Kd of 30 ± 4 µM.

With NP40 [Compound 6g], the ΔH in data set [1] was -3.41 ± 0.09 kcal/mol.

Regarding Reduced Triton X-100 [Compound 1b], the “CSPs / pocket binding in words” value with Cp149 dimer is “very small CSPs”.

In the case of Triton X-100 [Compound 1a], in data set [2], the Kd was 8.3 ± 0.5 µM and the ΔH is -4.59 ± 0.05 kcal/mol.

The term Kd denotes the equilibrium constant for the complex coming apart.
